Assay: Half life in rat
Type: ADME, organism-based
Conditions: in vivo

With `CC[C@H](C)[C@@H]1NC(=O)[C@@H](NC(=O)[C@H](CO)NC(=O)[C@@H](N)CCCNC(=N)N)CSSC[C@@H](C(=O)O)NC(=O)[C@H]([C@@H](C)O)NC(=O)CNC(=O)[C@@H]2CSSC[C@@H]3NC(=O)[C@H](CCC(N)=O)NC(=O)[C@H](Cc4ccccc4)NC(=O)[C@H](C)NC(=O)[C@H]([C@@H](C)O)NC(=O)[C@H](CSSC[C@H](NC(=O)[C@H](Cc4ccccc4)NC(=O)[C@H](CO)NC(=O)[C@H](CC(C)C)NC(=O)[C@H](CCCNC(=N)N)NC(=O)[C@H](Cc4ccc(O)cc4)NC(=O)[C@H](CCCCN)NC(=O)[C@H](CCSC)NC(=O)[C@H](CO)NC(=O)[C@H](Cc4cnc[nH]4)NC(=O)[C@H](CCCCN)NC3=O)C(=O)N[C@@H](CCCNC(=N)N)C(=O)N[C@@H](CCCCN)C(=O)N[C@@H]([C@@H](C)O)C(=O)N2)NC(=O)[C@H](CCCNC(=N)N)NC(=O)[C@H](CO)NC(=O)[C@H](CCCCN)NC(=O)[C@@H]2CCCN2C(=O)[C@H]([C@@H](C)CC)NC(=O)[C@H]([C@@H](C)O)NC(=O)[C@H](CC(=O)O)NC1=O` the half-life was 20 min.

— ChEMBL document CHEMBL3608278 (J Med Chem, 2015)
